Patent US20250241908A1 (SHANGHAI YAO YUAN BIOTECHNOLOGY CO., LTD., priority 2022, published 2025)
pIC50: −log10 of the molar value. Like-named read-outs stand apart in the source and are kept apart here.

How the values were obtained:
[1] = tested on: ALPK1-TIFA-IL1β pathway in THP-1-derived macrophage cells; assay: PMA-differentiated THP-1 cell based assay; conditions: for pIC50: Homo sapiens, PMA-differentiated THP-1 cells stimulated with ALPK1 agonist
Description: We evaluated the ability of ALPK1 inhibitors to suppress IL1β, IL8 and TNF-α levels following ALPK1 activation in THP-1-derived macrophage cells. […] Inhibitory activity is measured as suppression of IL1β.
THP-1 cells were cultured in RPMI 1640 containing 10% heat inactivated FBS, penicillin (100 units/ml) and streptomycin (100 μg/ml), and maintained in a humidified incubator with 95% atmospheric air and 5% CO2. Prior to the experiment, THP-1 cells were seeded into 24-well flat-bottom plate at a cell density of 40,0000 cells/well. Phorbol myristate acetate (PMA; 50 ng/ml) was used to treat THP-1 cells for 48 h, and then THP-1-derived macrophages were obtained. […] Total RNA was extracted using the TRIzol method and reverse-transcribed. The mRNA expression levels IL1β, IL8 and TNF-α were detected by SYBR green gene expression assays. Expression levels of mRNA were normalized to GAPDH. Relative expression was calculated by comparing to vehicle control and the values were plotted as fold induction. All activity results were expressed as the mean of triplicate determinations. IC50 was determined from dose response curve using Prism Software, version 6.00 from GraphPad Software.

[2] = tested on: ALPK1-dependent gene expression in PBMC; assay: Inhibition of ALPK1 in PBMC cells; assay type: in vivo, Sprague-Dawley (SD) rats; conditions: SD rats, 10 mpk oral, ALPK1 agonist ip 2 h later, blood 3 h after agonist; compared with vehicle group
Description: We examined whether ALPK1 inhibitors can suppress ALPK1-dependent activation of a set of such genes in rats. […] PBMCs were collected and gene expression analyzed, as described in more detail below.
After 3 hours administration of the ALPK1 agonist, the blood was collected from heart, and PBMC were extracted from each group.

ALPK1 = ALPK1 (Homo sapiens (Human), UniProt Q96QP1); assay: ALPK1 in vitro kinase assay (HTRF, TIFA phosphorylation); assay type: biochemical; conditions: HTRF of HA-tagged TIFA; ALPK1 2 nM; ADP-Heptose as activator
Sequence of ALPK1 (Q96QP1 whole entry): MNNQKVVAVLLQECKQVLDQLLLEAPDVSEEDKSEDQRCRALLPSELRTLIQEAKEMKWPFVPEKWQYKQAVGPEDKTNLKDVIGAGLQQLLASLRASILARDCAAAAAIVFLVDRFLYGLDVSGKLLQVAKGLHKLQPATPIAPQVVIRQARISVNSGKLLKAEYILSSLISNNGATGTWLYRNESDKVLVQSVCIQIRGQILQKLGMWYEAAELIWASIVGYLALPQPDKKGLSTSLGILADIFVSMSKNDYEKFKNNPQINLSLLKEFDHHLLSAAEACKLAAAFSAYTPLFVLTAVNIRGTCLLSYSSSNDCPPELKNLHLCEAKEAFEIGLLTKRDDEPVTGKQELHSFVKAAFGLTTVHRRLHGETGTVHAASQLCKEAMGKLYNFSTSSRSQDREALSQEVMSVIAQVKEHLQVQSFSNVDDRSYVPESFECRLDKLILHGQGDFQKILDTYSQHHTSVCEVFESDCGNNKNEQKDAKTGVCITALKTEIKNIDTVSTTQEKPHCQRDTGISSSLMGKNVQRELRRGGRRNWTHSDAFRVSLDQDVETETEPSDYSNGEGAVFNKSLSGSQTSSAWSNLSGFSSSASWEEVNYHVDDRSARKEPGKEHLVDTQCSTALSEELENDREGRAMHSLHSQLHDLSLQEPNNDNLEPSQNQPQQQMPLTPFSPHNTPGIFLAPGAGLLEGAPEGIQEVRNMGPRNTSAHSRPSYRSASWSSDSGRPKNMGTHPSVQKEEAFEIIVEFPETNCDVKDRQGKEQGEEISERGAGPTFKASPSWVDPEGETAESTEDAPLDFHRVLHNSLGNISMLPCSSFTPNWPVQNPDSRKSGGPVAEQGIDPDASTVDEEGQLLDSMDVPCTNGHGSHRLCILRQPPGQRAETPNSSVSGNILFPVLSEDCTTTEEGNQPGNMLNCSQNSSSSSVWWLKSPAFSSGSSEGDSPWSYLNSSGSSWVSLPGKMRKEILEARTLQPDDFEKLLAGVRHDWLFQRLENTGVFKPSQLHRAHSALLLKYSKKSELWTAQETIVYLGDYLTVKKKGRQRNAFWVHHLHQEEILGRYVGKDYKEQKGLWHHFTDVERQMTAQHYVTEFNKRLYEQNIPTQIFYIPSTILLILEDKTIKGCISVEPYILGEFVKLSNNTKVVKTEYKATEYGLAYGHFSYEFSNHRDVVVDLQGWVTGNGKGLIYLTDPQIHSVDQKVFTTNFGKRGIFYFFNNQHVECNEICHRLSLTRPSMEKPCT
Description: ALPK1 kinase activity was measured in an in vitro assay using ADP-Heptose as the ALPK1 ligand and activator of its kinase activity and TIFA protein as the ALPK1 phosphorylation substrate. Since phosphorylated TIFA proteins oligomerize, Homogeneous Time-Resolved Fluorescence (HTRF) was used to measure protein: protein interaction between HA-tagged TIFA proteins as an indicator of TIFA phosphorylation.
In brief, dose-response studies were performed in 384-well assay plates. Each well contained 0.1 mg TIFA, ALPK1 (2 nM final concentration in reaction mixture) and kinase buffer (100 mM of HEPES pH 7.4, 4 mM DTT, 40 mM MgCl2, 20 mM of β-Glycerol phosphate disodium salt, 0.4 mM of Na3 VO4, 0.16 mg/mL). Titrations of the test compounds were prepared in dimethylsulphoxide (DMSO). The reaction was initiated by addition of ATP and ADP-Heptose.
For HTRF, samples were incubated with a Tb cryptate-labeled anti-HA antibody for capturing HA-tagged proteins according to the manufacturer's instructions (PerkinElmer™, CisBio™) and the fluorescence signal was quantified (Tecan Infinite F NANO+). HTRF signals were calculated as the HTRF ratio (ratio of fluorescence measured at 665 nm and 620 nm)×104 (thereby using the signal at 620 nm as an internal standard).
IC50 values were determined using 3- or 4-parameter logistic equation using GraphPad Prism version 6.00.

[3] = tested on: PCL induced atherosclerosis in ApoE knockout mice; assay: ApoE mice, high fat diet, Partial Carotid Ligation atherosclerosis model; assay type: in vivo, mouse; conditions: high fat diet, 1, 3, 9 mg/kg oral once daily for 2 weeks from PCL surgery
Description: To determine the efficacy of ALPK1 inhibitor in atherosclerosis, we treat the ApoE mice with High Fat Diet (Research Diet, D12109C), and perform Partial Carotid Ligation (PCL) surgery on left Carotid artery as described previously (Zhang, Chenghu et al. “Coupling of Integrin a5 to Annexin A2 by Flow Drives Endothelial Activation.” Circulation research vol. 127, 8 (2020): 1074-1090) to accelerate the development of atherosclerosis. […] Two weeks later, the carotid artery of ligated side was collected, the contralateral carotid from vehicle group were served as control. The carotid was fixed and sectioned. The wall thicknesses were quantified by software.

[4] = tested on: ALPK1-TIFA pathway target gene mRNA in HASMC; assay: Primary Human Aorta Smooth Muscle Cell-based assay; conditions: for pIC50: Homo sapiens, HASMC stimulated with ALPK1 agonist
Description: Primary Human Aorta smooth muscle Cells (HASMC) grow in Smooth muscle Cell Basal Media supplemented with Smooth Muscle Cell Growth Kit components (PriMed-iCell-002, iCell), provide an ideal cell system to propagate HASMC.
Briefly, primary HASMC were seeded at a density of 25000 cells per well to a collagen coated 24-well culture plate. […] Total RNA was extracted using the RNeasy mini kit method and reverse-transcribed. The mRNA expression levels of target genes were detected by SYBR green gene expression assays. Expression levels of mRNA were normalized to HPRT. Relative expression was calculated by comparing to vehicle control and the values were plotted as fold induction. All activity results were expressed as the mean of triplicate determinations. IC50 was determined from dose response curve using Prism Software, version 6.00 from GraphPad Software.

[5] = tested on: OSS-induced inflammatory signaling in ECs (HUVECs); assay: Oscillatory shear stress (OSS) in HUVECs; assay type: cell-based, human; conditions: oscillatory flow 0.5±4 dyn/cm2 for 6 hours, 300 nM
Description: For flow experiments, confluent monolayers of HUVECs were seeded on glass slides, Static condition (ST) without any treatment served as control and a parallel plate flow system was used to impose oscillatory flow (0.5±4 dyn/cm2) for 6 hours.

[6] = tested on: innate immunity gene expression following ALPK1 activation; assay: Inhibition of ALPK1 in coronary artery, aorta, and heart muscle; assay type: in vivo, Sprague-Dawley (SD) rats; conditions: SD rats, 40 mpk oral, ALPK1 agonist ip 2 h later, tissue 3 h after agonist; compared with vehicle group
[7] = tested on: carotid artery of Guinea Pig after PCL surgery; assay: Guinea pig, high fat diet, Partial Carotid Ligation model; assay type: in vivo; conditions: 6 weeks high fat diet

Structure (SMILES): C#C[C@@](C)(c1ccc(Cl)cc1)c1csc(NC(=O)NCCO)n1 [Compound A176, (S)-1-(4-(2-(4-chlorophenyl)but-3-yn-2-yl)thiazol-2-yl)-3-(2-hydroxyethyl)urea]
- inhibition of IL1β induced by ALPK1 activation ([1]; THP-1-derived macrophages): potent inhibition
- PBMC mRNA expression for CCL-2, CCL-7, CXCL-1, CXCL-10, CXCL-11 and IL-1β [2]: significant decreases

Structure (SMILES): COc1ccc(C(C)(C)c2csc(NC(=O)c3ccc(N4CCNCC4C)cc3)n2)cc1 (centres unmarked) [Compound B014]
- pIC50 (ALPK1): 6.52

Structure (SMILES): COc1ccc(C(C)(C)c2csc(NC(=O)c3ccc(N4CCNCC4)cn3)n2)cc1 [Compound B044, N-(4-(2-(4-methoxyphenyl)propan-2-yl)thiazol-2-yl)-5-(piperazin-1-yl)picolinamide]
- pIC50 (ALPK1): 6.67

Structure (SMILES): C#C[C@@](C)(c1ccc(Cl)cc1)c1csc(NC(=O)c2c(F)cc(N3CCNCC3)cc2F)n1 [Compound C008, (S)-N-(4-(2-(4-chlorophenyl)but-3-yn-2-yl)thiazol-2-yl)-2,6-difluoro-4-(piperazin-1-yl)benzamide]
- PCL induced atherosclerosis (carotid artery wall thickness) [3]: dose dependently inhibited
- pIC50 ([1]; read-out: IL-8 mRNA IC50): 8.22
- pIC50 ([1]; read-out: TNF-α mRNA IC50): 8.05
- inhibition of IL1β induced by ALPK1 activation ([1]; THP-1-derived macrophages): potent inhibition
- inhibition of IL8 and TNF-α mRNA induced by ALPK1 activation ([1]; THP-1-derived macrophages): potent inhibition
- IL8, TIFA, ICAM-1, VCAM-1 mRNA levels induced by ALPK1 activation ([4]; HASMC): dose dependently inhibited
- pIC50 ([4]; read-out: IC50 ICAM-1 mRNA): 7.33
- pIC50 ([4]; read-out: IC50 IL8 mRNA): 6.96
- pIC50 ([4]; read-out: IC50 TIFA mRNA): 6.94
- pIC50 ([4]; read-out: IC50 VCAM-1 mRNA): 7.42
- OSS-induced inflammatory signaling in ECs (E-selectin and inflammatory cytokine mRNA) [5]: reduced
- PBMC mRNA expression for CCL-7, CXCL-1, CXCL-10, CXCL-11, IL-1β, TNF-α and IL-6 [2]: significant decreases
- mRNA expression of aorta IL-6, CXCL-1, CXCL-10, CCL-2 [6]: significantly decreased
- mRNA expression of cardiac muscle TNF-α, IL-1b, IL-6, CXCL-1, CXCL-10, CXCL-11, CCL-2 and CCL-5 [6]: significantly decreased
- mRNA expression of coronary artery TNF-α, CXCL-1, CCL-2 and CCL-7 [6]: significantly decreased
- fibrosis area percentage of the carotid artery (Masson staining) [7]: decreased
- liver CYP7A1 expression [7]: elevated CYP7A1 expression dose dependently
- total plasma cholesterol level [7]: dose dependently decreased
- wall thickness of the carotid artery (Masson staining) [7]: decreased
